# In patent US9389235B2, “Methods of using biomarkers for predicting the outcome of an immunotherapy against cancer” (priority 2010, dated 2016):
# Where two headings read alike, the source gives them in different places.
# System: metastatic RCC patients
# Assay type: in vivo, human
# Conditions: for HR, overall survival, +CY vs −CY arm / HR (95% CI), overall survival, +CY vs −CY arm: IMA901-treated patients
# Method: The IMA901-202 (phase II) study used univariate and multivariate analyses to identify parameters which alone or in combination serve as predictive biomarkers for the success in terms of immune response induction and prolongation of overall survival of IMA901 treatment of metastatic RCC patients.
# To achieve this, around 450 parameters (patient- or tumor-related parameters as well as analytes measured in serum or urine and cellular parameters) were analyzed using pre-treatment samples of the IMA901-202 (phase II) study population. For multivariate analyses, which selected a set of several parameters, those parameters that required preparation of peripheral blood mononuclear cells (PBMCs) were not included in order to limit measurement costs in future trials. Parameters were analyzed for their association with overall survival and T-cell responses.
# Thereby, the selection of purely prognostic markers, which by definition would show association with overall survival in both arms, was avoided.
# All samples were collected before any therapeutic study intervention, either three days before vaccination and immediately before administration of cyclophosphamide in the +CY arm, or immediately before vaccination. Serum samples were taken using a serum/gel-[…] (Becton Dickinson, 5 ml), inverted and incubated for a minimum of 30 minutes. Tubes were centrifuged for 15 minutes at least 1200×g, and serum (approximately 2 ml) was transferred into a NUNC cryotube (3.6 ml). Cryotubes were stored immediately at <−20° C. until measurement. […] Urine was collected shortly before vaccination. For dipstick examination, only fresh urine was used. Citrated plasma for analysis of coagulation was collected approximately two weeks before vaccination. Samples were taken using a citrate-[…] and centrifuged within 30 minutes at least 1200×g at ambient temperature. Supernatant plasma was transferred into microtubes.
# Biomarker measurement methods included ELISA, multiplex immunoassays, epigenetic assays, mass spectrometry, FACS analyses, routine clinical methods of haematology, clinical chemistry and urine analysis, and other methods.
# The interaction of parameters with CY-pre-treatment was assessed using the Cox proportional hazards model. Candidates showing an interaction p value of <0.05 at any cutoff value that was not at the extreme ends of the distribution (i.e. selecting or de-selecting >˜5% of patients) were considered as interesting.
# Moreover, to exclude parameters with significant interaction due to inverse association of cyclophosphamide pre-treatment with overall survival in the unfavorable biomarker group, an additional criterion was significant association (p<0.05) with overall survival in the positive biomarker group. A significant (p<0.05) association with overall survival in the +CY group, but not in the −CY group was considered to be an additional hint for the predictive instead of prognostic quality of a parameter.
# Multivariate biomarkers were determined according to a Cox proportional hazard model, whose properties and extensions are described in the following.
structure (smiles),measurement,setting,value
O=P1(N(CCCl)CCCl)NCCCO1 (stereo not shown) [cyclophosphamide],patients still alive at the end of the study,"CCL17/TARC-positive cyclophosphamide-pre-treated patients, IMA901 treatment (FIG. 1D)",75%
same,"HR, interaction of biomarker with cyclophosphamide pre-treatment (overall survival)","biomarker ApoA1, cutoff 0.264 mg/ml",0.43
same,"HR, interaction of biomarker with cyclophosphamide pre-treatment (overall survival)","biomarker CCL17/TARC, cutoff 161.99 pg/ml",0.26
same,"HR, interaction of biomarker with cyclophosphamide pre-treatment (overall survival)","biomarker CXCL13/BCA-1, cutoff 64.21 pg/ml",0.3271
same,"HR, interaction of biomarker with cyclophosphamide pre-treatment (overall survival)","biomarker monocytes, cutoff 7.7%",0.22
same,"HR, overall survival, +CY vs −CY arm","biomarker-negative group, ApoA1, cutoff 0.264 mg/ml",0.84
same,"HR, overall survival, +CY vs −CY arm","biomarker-negative group, CCL17/TARC, cutoff 161.99 pg/ml",0.85
same,"HR, overall survival, +CY vs −CY arm","biomarker-negative group, CXCL13/BCA-1, cutoff 64.21 pg/ml",1.07
same,"HR, overall survival, +CY vs −CY arm","biomarker-negative group, monocytes, cutoff 7.7%",1.31
same,"HR (95% CI), overall survival, +CY vs −CY arm","biomarker-negative group, multivariate biomarker, cutoff 0.019076043 points",2.5 (0.95-6.58);
same,"HR, overall survival, +CY vs −CY arm","biomarker-positive group, ApoA1, cutoff 0.264 mg/ml",0.36
same,"HR, overall survival, +CY vs −CY arm","biomarker-positive group, CCL17/TARC, cutoff 161.99 pg/ml",0.22
same,"HR, overall survival, +CY vs −CY arm","biomarker-positive group, CXCL13/BCA-1, cutoff 64.21 pg/ml",0.35
same,"HR, overall survival, +CY vs −CY arm","biomarker-positive group, monocytes, cutoff 7.7%",0.29
same,"HR (95% CI), overall survival, +CY vs −CY arm","biomarker-positive group, multivariate biomarker, cutoff 0.019076043 points",0.08 (0.02-0.38);
same,"HR (95% CI), interaction of multivariate biomarker with cyclophosphamide pre-treatment (overall survival)","multivariate biomarker, cutoff 0.019076043 points",0.032 (0.0055-0.1863);
